Molecules are shown by their SMILES. Where a name gives a salt, the structure may show the parent alone.

Assay [1] relates to RS4;11 leukaemia tumour line. Description: In vitro cytotoxicity (Microculture Tetrazolium Assay). The format is cell-based. The conditions noted are these: Homo sapiens, RS4-11, 48 h, RS4;11 cells, exposed for 48 hours, cell viability; read-out: IC50 (nM) MTT RS4;11. On the procedure: The cytotoxicity studies were carried out on the RS4;11 leukaemia tumour line.
The cells are distributed onto microplates and exposed to the test compounds for 48 hours.
The cell viability is then quantified by a colorimetric assay, the Microculture Tetrazolium Assay (Cancer Res., 1987, 47, 939-942).

The target of a further assay is Bcl-2 protein (histag-Bcl-2, UniProtKB P10415) (Homo sapiens (Human), UniProt P10415). Put plainly: Inhibition of Bcl-2 by the fluorescence polarisation technique. The conditions noted are these: incubation for 2 hours, read-out: IC50 (nM) Bcl-2 FP. The format is binding. Summed up:
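In pH 7.4 buffer (Hepes 10 mM, NaCl 150 mM, Tween20 0.05%), test compounds at increasing concentrations competed with a fluorescein peptide (1.00×10^−8 M final) for histag-Bcl-2 (2.50×10^−8 M final). Readout was fluorescence polarisation after a 2 h incubation.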

Assay [2] has as its system cleaved (activated) form of caspase 3 in RS4;11 leukaemia cell xenograft tumours. Put plainly: Quantification of the cleaved form of caspase 3 in vivo (MSD ELISA). The settings on record: Mus musculus, cleaved caspase 3 MSD test, oral route, tumour removed after 2 hours, read-out: Activation factor ± SEM (versus control). Also noted: species or system mice (SCID strain). On the procedure:
The ability of the compounds of the invention to activate caspase 3 is evaluated in a xenograft model of RS4;11 leukaemia cells.
1×10^7 RS4;11 cells are grafted sub-cutaneously into immunosuppressed mice (SCID strain). 25 to 30 days after the graft, the animals are treated orally with the various compounds. After treatment, the tumour masses are recovered and lysed, and the cleaved (activated) form of caspase 3 is quantified in the tumour lysates.
The quantification is carried out using the “Meso Scale Discovery (MSD) ELISA platform” test, which specifically assays the cleaved form of caspase 3. It is expressed in the form of an activation factor corresponding to the ratio between the quantity of cleaved caspase 3 in the treated mice divided by the quantity of cleaved caspase 3 in the control mice.
(An ELISA detects its analyte on a solid surface through an enzyme-linked reagent.)

Sequence of Bcl-2 protein (P10415 whole entry): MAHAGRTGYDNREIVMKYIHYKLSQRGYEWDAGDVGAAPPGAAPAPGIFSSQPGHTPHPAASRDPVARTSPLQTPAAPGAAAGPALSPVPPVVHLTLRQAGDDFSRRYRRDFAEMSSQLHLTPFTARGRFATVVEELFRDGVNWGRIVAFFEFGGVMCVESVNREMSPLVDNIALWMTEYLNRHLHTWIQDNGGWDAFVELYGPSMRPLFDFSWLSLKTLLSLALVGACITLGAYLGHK

The IC50 is the concentration at which inhibition is half-maximal. In the case of `Cc1c(C(=O)N(c2ccc(O)cc2)c2cnn(C)c2)cc(-c2cc(Cl)ccc2C(=O)N2Cc3ccccc3C[C@H]2CN2CCOCC2)n1C` [Example 25, 5-(5-Chloro-2-{[(3S)-3-(morpholin-4-ylmethyl)-3,4-dihydroisoquinolin-2(1H)-yl]carbonyl}phenyl)-N-(4-hydroxyphenyl)-1,2-dimethyl-N-(1-methyl-1H-pyrazol-4-yl)-1H-pyrrole-3-carboxamide hydrochloride], the IC50 in assay [1] stood at 33.3 nM; on Bcl-2 protein it was 4 nM. The fold induction at 25 mg/kg in assay [2] came out at 45.7 ± 2.
In the same order, the values of `Cc1c(C(=O)N(c2ccc(O)cc2)c2cnn(C)c2)cc(-c2cc3c(cc2C(=O)N2Cc4ccccc4C[C@H]2CN2CCOCC2)OCO3)n1C` [Example 47, N-(4-Hydroxyphenyl)-1,2-dimethyl-N-(1-methyl-1H-pyrazol-4-yl)-5-(6-{[(3S)-3-(morpholin-4-ylmethyl)-3,4-dihydroisoquinolin-2(1H)-yl]carbonyl}-1,3-benzodioxol-5-yl)-1H-pyrrole-3-carboxamide hydrochloride] are 44.5 nM, 5.9 nM and 12.3 ± 2.4.
In the same order, the values of `Cc1c(C(=O)N(c2ccc(O)cc2)c2cnc3c(ccn3C)c2)cc(-c2cc(Cl)ccc2C(=O)N2Cc3ccccc3C[C@H]2CN2CCOCC2)n1C` [Example 71, 5-(5-Chloro-2-{[(3S)-3-(morpholin-4-ylmethyl)-3,4-dihydroisoquinolin-2(1H)-yl]carbonyl}phenyl)-N-(4-hydroxyphenyl)-1,2-dimethyl-N-(1-methyl-1H-pyrrolo[2,3-b]pyridin-5-yl)-1H-pyrrole-3-carboxamide hydrochloride] are 12.9 nM, 6.1 nM and 46.8 ± 16.1.
Turning to `Cc1c(C(=O)N(c2ccc(O)cc2)c2cc(C#N)n(C)c2)cc(-c2cc(F)ccc2C(=O)N2Cc3ccccc3C[C@H]2CN2CCOCC2)n1C` [Example 230, N-(5-Cyano-1-methyl-1H-pyrrol-3-yl)-5-(5-fluoro-2-{[(3S)-3-(morpholin-4-ylmethyl)-3,4-dihydroisoquinolin-2(1H)-yl]carbonyl}phenyl)-N-(4-hydroxyphenyl)-1,2-dimethyl-1H-pyrrole-3-carboxamide hydrochloride], the IC50 in assay [1] was 18.3 nM; at Bcl-2 protein, 5.1 nM. In assay [2], the fold induction at 25 mg/kg worked out at 42.2 ± 9.3.
Consider `Cc1nn(C)cc1N(C(=O)c1cc(-c2cc(F)ccc2C(=O)N2Cc3ccccc3C[C@H]2CN2CCOCC2)n(C)c1C)c1ccc(O)cc1` [Example 452, N-(1,3-Dimethyl-1H-pyrazol-4-yl)-5-(5-fluoro-2-{[(3S)-3-(morpholin-4-ylmethyl)-3,4-dihydroisoquinolin-2(1H)-yl]carbonyl}phenyl)-N-(4-hydroxyphenyl)-1,2-dimethyl-1H-pyrrole-3-carboxamide hydrochloride], for which the IC50 in assay [1] is 112 nM; on Bcl-2 protein, 8.3 nM.
In the same order, the values of `Cc1c(N(C(=O)c2cc(-c3cc(F)ccc3C(=O)N3Cc4ccccc4C[C@H]3CN3CCOCC3)n(C)c2C)c2ccc(O)cc2)cnn1C` [Example 453, N-(1,5-Dimethyl-1H-pyrazol-4-yl)-5-(5-fluoro-2-{[(3S)-3-(morpholin-4-ylmethyl)-3,4-dihydroisoquinolin-2(1H)-yl]carbonyl}phenyl)-N-(4-hydroxyphenyl)-1,2-dimethyl-1H-pyrrole-3-carboxamide hydrochloride] are 99.9 nM and 6.9 nM.
Consider `Cc1c(N(C(=O)c2cc(-c3cc(Cl)ccc3C(=O)N3Cc4ccccc4CC3C(F)(F)F)n(C)c2C)c2ccc(O)cc2)cc(C#N)n1C` (stereo not drawn) [Example 454, 5-(5-Chloro-2-{[3-(trifluoromethyl)-3,4-dihydroisoquinolin-2(1H)-yl]carbonyl}phenyl)-N-(5-cyano-1,2-dimethyl-1H-pyrrol-3-yl)-N-(4-hydroxyphenyl)-1,2-dimethyl-1H-pyrrole-3-carboxamide], for which the IC50 stood at 158 nM in assay [1] and 6.5 nM on Bcl-2 protein.
In the same order, the values of `Cc1c(C(=O)N(c2ccc(O)cc2)c2cc(C#N)n(CCN3CCOCC3)c2C)cc(-c2cc(Cl)ccc2C(=O)N2Cc3ccccc3C[C@H]2C)n1C` [Example 455, 5-(5-Chloro-2-{[(3R)-3-methyl-3,4-dihydroisoquinolin-2(1H)-yl]-carbonyl}phenyl)-N-{5-cyano-2-methyl-1-[2-(morpholin-4-yl)ethyl]-1H-pyrrol-3-yl}-N-(4-hydroxyphenyl)-1,2-dimethyl-1H-pyrrole-3-carboxamide hydrochloride] are 11.8 nM and 1.9 nM.
Consider `Cc1c(C(=O)N(c2ccc(O)cc2)c2cnc(OCCN3CCOCC3)nc2)cc(-c2cc(Cl)ccc2C(=O)N2Cc3ccccc3C[C@H]2C)n1C` [Example 456, 5-(5-Chloro-2-{[(3R)-3-methyl-3,4-dihydroisoquinolin-2(1H)-yl]-carbonyl}phenyl)-N-(4-hydroxyphenyl)-1,2-dimethyl-N-{2-[2-(morpholin-4-yl)-ethoxy]pyrimidin-5-yl}-1H-pyrrole-3-carboxamide hydrochloride], for which the IC50 was found to be 80.6 nM in assay [1] and 2.7 nM on Bcl-2 protein.
For `Cc1c(N(C(=O)c2cc(-c3cc(Cl)ccc3C(=O)N3Cc4ccccc4C[C@H]3CN3CCOCC3)n(C)c2C)c2ccc(O)cc2)cn(C)c1C#N` [Example 458, 5-(5-Chloro-2-{[(3S)-3-(morpholin-4-ylmethyl)-3,4-dihydroisoquinolin-2(1H)-yl]carbonyl}phenyl)-N-(5-cyano-1,4-dimethyl-1H-pyrrol-3-yl)-N-(4-hydroxyphenyl)-1,2-dimethyl-1H-pyrrole-3-carboxamide hydrochloride], the figures for the 50% inhibitory concentration (IC50) (in assay [1]; at Bcl-2 protein) were 197 nM and 10.5 nM, respectively.
In the same order, the values of `CCn1c(C#N)cc(N(C(=O)c2cc(-c3cc(Cl)ccc3C(=O)N3Cc4ccccc4C[C@H]3CN3CCOCC3)n(C)c2C)c2ccc(O)cc2)c1C` [Example 459, 5-(5-Chloro-2-{[(3S)-3-(morpholin-4-ylmethyl)-3,4-dihydroisoquinolin-2(1H)-yl]carbonyl}phenyl)-N-(5-cyano-1-ethyl-2-methyl-1H-pyrrol-3-yl)-N-(4-hydroxyphenyl)-1,2-dimethyl-1H-pyrrole-3-carboxamide hydrochloride] are 5.93 nM and 2.5 nM.
In the same order, the values of `Cc1c(C(=O)N(c2ccc(O)cc2)c2cnn(C3CCOC3)c2)cc(-c2cc(Cl)ccc2C(=O)N2Cc3ccccc3C[C@H]2CCCN2CCOCC2)n1C` (stereo partly drawn) [Example 460, 5-(5-Chloro-2-{[(3R)-3-[3-(morpholin-4-yl)propyl]-3,4-dihydroisoquinolin-2(1H)-yl]carbonyl}phenyl)-N-(4-hydroxyphenyl)-1,2-dimethyl-N-[1-(tetrahydrofuran-3-yl)-1H-pyrazol-4-yl]-1H-pyrrole-3-carboxamide hydrochloride] are 22.9 nM and 2.8 nM.
Consider `Cc1c(N(C(=O)c2cc(-c3cc(Cl)ccc3C(=O)N3Cc4ccccc4C[C@H]3CCCN3CCOCC3)n(C)c2C)c2ccccc2)cc(C#N)n1C` [Example 461, 5-(5-Chloro-2-{[(3R)-3-[3-(morpholin-4-yl)propyl]-3,4-dihydroisoquinolin-2(1H)-yl]carbonyl}phenyl)-N-(5-cyano-1,2-dimethyl-1H-pyrrol-3-yl)-1,2-dimethyl-N-phenyl-1H-pyrrole-3-carboxamide hydrochloride], for which the IC50 in assay [1] is 18.6 nM; at Bcl-2 protein, 3.1 nM.
`Cc1cc(N(C(=O)c2cc(-c3cc(Cl)ccc3C(=O)N3Cc4ccccc4C[C@H]3CN3CCOCC3)n(C)c2C)c2ccc(O)cc2)no1` [Example 462, 5-(5-Chloro-2-{[(3S)-3-(morpholin-4-ylmethyl)-3,4-dihydroisoquinolin-2(1H)-yl]carbonyl}phenyl)-N-(4-hydroxyphenyl)-1,2-dimethyl-N-(5-methyl-1,2-oxazol-3-yl)-1H-pyrrole-3-carboxamide]: the IC50 in assay [1] was determined as 368 nM; on Bcl-2 protein it was 13.3 nM.
Regarding `Cc1c(C(=O)N(c2cnc3c(ccn3C)c2)c2ccc(O)cn2)cc(-c2cc(Cl)ccc2C(=O)N2Cc3ccccc3C[C@H]2CN2CCOCC2)n1C` [Example 464, 5-(5-Chloro-2-{[(3S)-3-(morpholin-4-ylmethyl)-3,4-dihydroisoquinolin-2(1H)-yl]carbonyl}phenyl)-N-(5-hydroxypyridin-2-yl)-1,2-dimethyl-N-(1-methyl-1H-pyrrolo[2,3-b]pyridin-5-yl)-1H-pyrrole-3-carboxamide dihydrochloride], the IC50 in assay [1] stood at 723 nM; at Bcl-2 protein, 36.6 nM.
In the case of `Cc1c(C(=O)N(c2ccccc2)c2ccc(O)cc2)cc(-c2cc(Cl)ccc2C(=O)N2CCc3ccccc3C2)n1C` [Example 467, 5-(5-Chloro-2-{[3,4-dihydroisoquinolin-2(1H)-yl]carbonyl}phenyl)-N-(4-hydroxyphenyl)-1,2-dimethyl-N-phenyl-1H-pyrrole-3-carboxamide], the figures for the IC50 (in assay [1]; on Bcl-2 protein) were 188 nM and 19.2 nM, respectively.

The record behind these values is patent publication US9108983B2, “Pyrrole compounds, a process for their preparation and pharmaceutical compositions containing them” (LES LABORATOIRES SERVIER, priority 2013, dated 2015).
